Values of other authors, collected in patent US20170128595A1, “MICROBIAL GROWTH INDICATING MEDICAL DEVICES” (Indicator Systems International, Inc., priority 2013, published 2017).

Details: fluorescein; ionization equilibrium gives pH-dependent absorption and emission over pH 5 to 9

Substance: fluorescein
- pKa: 6.4
